Results: US20050171084A1, “Methods of treatment with lxr modulators” (priority 2002, published 2005)

Experiments:
[1] = test system: rat pheochromocytoma cells; conditions: Schmidt, et al. (19); cited from earlier work
[2] = test system: Hippocampal neurons; assay: Neurite outgrowth in hippocampal neurons; format: cell-based, rat; conditions: HC neurons, 48 hours, SEM in parentheses
Experimental: Hippocampal neurons: The hippocampi of gestational day 18 rat embryos were dissected out, incubated in trypsin (0.08%, 30 min at 37° C.) and dissociated mechanically (16). Hippocampal cells were resuspended in neurobasal medium supplemented with B27, anti-oxidants, 1 mM glutamine, 25 μM glutamate, 1 mM pyruvate. For outgrowth assays, cells were plated at a density of 3000 cells/well into 96 well dishes that had previously been coated with poly-D-lysine followed by 10% FCS and cultured for 48 hours.
The test compound was solubilised in DMSO and added to culture medium at time of cell plating at a dilution of 1:1000. Vehicle only (1:1000) was added to culture medium of untreated controls. Cells were fixed with 4% paraformaldehyde for 1 hour on ice, washed with PBS and stained using Coomassie. Assays were quantified using a KS300 image analysis system (Imaging Associates, UK). For each cell measured, the length from the edge of the cell to the end of the longest neurite was measured for 100 cells/well for each treatment in triplicate. All data are means and SEM pooled from three independent experiments. Results are expressed as a percentage of the length of neurites of cells treated with vehicle alone.

[3] = target: T1, LXRβ protein (Homo sapiens, UniProt P55055); conditions: 1 μM; over a background reading of 10000 fluorescence units; cited from earlier work
T1 sequence (P55055 1-460): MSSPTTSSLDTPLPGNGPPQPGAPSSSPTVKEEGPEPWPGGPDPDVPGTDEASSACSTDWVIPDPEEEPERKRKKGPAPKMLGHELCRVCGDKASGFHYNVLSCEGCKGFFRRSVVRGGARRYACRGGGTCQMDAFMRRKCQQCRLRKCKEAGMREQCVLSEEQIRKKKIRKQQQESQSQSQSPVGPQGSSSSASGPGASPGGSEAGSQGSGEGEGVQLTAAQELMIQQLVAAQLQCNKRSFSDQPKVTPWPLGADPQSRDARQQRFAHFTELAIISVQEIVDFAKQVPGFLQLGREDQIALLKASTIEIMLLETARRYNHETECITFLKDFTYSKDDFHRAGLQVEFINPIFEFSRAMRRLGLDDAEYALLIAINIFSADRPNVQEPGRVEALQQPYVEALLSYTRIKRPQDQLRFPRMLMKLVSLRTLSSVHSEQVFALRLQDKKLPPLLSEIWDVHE

SMILES	neuronal differentiation [1]	length of longest neurite, percentage of cells treated with vehicle alone ([2]; 0.3 μm test compound)	length of longest neurite, percentage of cells treated with vehicle alone ([2]; 1.0 μm test compound)	length of longest neurite, percentage of cells treated with vehicle alone ([2]; 3.0 μm test compound)	length of longest neurite, percentage of cells treated with vehicle alone ([2]; 10.0 μm test compound)	fluorescence reading [3]
CCCCCCCCCCCCCCOc1ccc(C(=O)O)o1 [5-tetradecyloxy-2-furancarboxylic acid]	induced neuronal differentiation					
CC(C)CC[C@@H](O)[C@@H](C)[C@H]1CC[C@H]2[C@@H]3CC=C4C[C@@H](O)CC[C@]4(C)[C@H]3CC[C@]12C [22(R) hydroxychol., 22(R)-hydroxycholesterol, reference compound]	induced neuronal differentiation	115.9 (6.02) %	116 (7.45) %	129.9 (4.12) %	127.9 (6.18) %	
C[C@H](CC[C@@H]1OC1(C)C)[C@H]1CC[C@H]2[C@@H]3CC=C4C[C@@H](O)CC[C@]4(C)[C@H]3CC[C@]12C [24(S), 25-epoxycholesterol]						20000 fluorescence units
